Source: patent US20240219374A1, “A Triple Co-Culture System for Drug Screening of Patient-Derived Cancer Cells and Methods of Use” (OncoPrecision Corporation, priority 2021, published 2024)

Key:
[1] = test system: TC cells (human bone marrow stroma cell line HS-5, Cayenne-RFP); assay: Triple co-culture drug test (DART), flow cytometry: Tox Control cells; type: cell-based; settings: for cytotoxic effect on the TC cells: Example 8, FIG. 9A, Panobinostat 5 nM, Cytarabine 22 nM + Daunorubicine 41 nM, Venetoclax 1.6 μM
Excerpt: DMSO treated wells were used as controls.

[2] = test system: PDC cells from patient OP #23 (acute myeloid leukemia); assay: Triple co-culture drug test (DART), flow cytometry: PDC cells of patient OP #23; settings: for cytotoxic effect on the PDC cells: Example 8, FIG. 9A, 6 days, Panobinostat 5 nM, Cytarabine 22 nM + Daunorubicine 41 nM, Venetoclax 1.6 μM, PDC:SC:TC 10:1:1
[3] = test system: PDCs from an AML patient; assay: Magnetically printed 3D tumoroid triple co-culture, flow cytometry: PDCs; type: cell-based, human; settings: 3D tumoroids; Cytarabine 200 nM; 6 days; 10,000 PDC, 3,000 SC, 8,000 TC cells
Procedure: (§1) The 3D tumoroid was formed with or without extracellular matrix (ECM) embedded in culture media. […] On day 1, when the tumoroids were in a fully compact 3D configuration, the multiwell plates containing the tumoroid replicas (1 per well) were subjected to a matrix of treatments, including mono-drugs and combinations.
(§2) Magnetically printed 3D patient-micro-avatars (PMAs) using PDCs from an AML patient were prepared. PDCs from a bone marrow aspirate were processed by Ficoll-Paque to isolate the PBMC fraction, which was printed into 3D tumoroids in co-culture with SC cells and TC cells. Particularly, 10,000 PDC cells were mixed with 3,000 SC cells, and 8,000 TC cells.
(§3) 3D tumoroids so formed were treated for 6 days with vehicle or Cytarabine at 200 nM. […] At the end of the treatment, tumoroids were analyzed first by florescence microscopy (left panel of FIG. 12B). The tumoroids were subsequentially disaggregated mechanically and analyzed by flow cytometry to quantify the surviving fraction of PDCs, SC cells, and TC cells (right panel of FIG. 12B).

[4] = test system: SC cells; assay: Magnetically printed 3D tumoroid triple co-culture, flow cytometry: SC cells; type: cell-based; settings: 3D tumoroids; Cytarabine 200 nM; 6 days
Procedure: as §1, §2, §3

[5] = test system: TC cells; assay: Magnetically printed 3D tumoroid triple co-culture, flow cytometry: TC cells; type: cell-based; settings: 3D tumoroids; Cytarabine 200 nM; 6 days
Procedure: as §1, §2, §3

| Structure (SMILES) | cytotoxic effect on the TC cells ([1]; 6 days) | cytotoxic activity on the TC cells ([1]; Example 9, FIG. 9C, four doses, 6 days) | effects on the TC cells ([1]; Example 12, FIG. 11B) | cytotoxic effect on the PDC cells [2] | cytotoxic effects on the PDC cells ([2]; Example 12, FIG. 11B, top drugs alone or combined at the lowest dose, standard care in parallel) | cytotoxic effects on the cancer cells (PDCs) [3] | cytotoxic effects on the SC cells [4] | cytotoxicity on the TC cells [5] |
| --- | --- | --- | --- | --- | --- | --- | --- | --- |
| CC1(C)CCC(CN2CCN(c3ccc(C(=O)NS(=O)(=O)c4ccc(NCC5CCOCC5)c([N+](=O)[O-])c4)c(Oc4cnc5[nH]ccc5c4)c3)CC2)=C(c2ccc(Cl)cc2)C1 [Venetoclax] | no cytotoxic effect | no cytotoxic activity | exerted effects | strong cytotoxic effect | cytotoxic effects |  |  |  |
| Cc1[nH]c2ccccc2c1CCNCc1ccc(/C=C/C(=O)NO)cc1 [Panobinostat] | neither the PDC cells nor the TC cells showed a response |  |  | neither the PDC cells nor the TC cells showed a response |  |  |  |  |
| Nc1ccn([C@@H]2O[C@H](CO)[C@@H](O)[C@@H]2O)c(=O)n1 [cytarabine, Cytarabine] |  |  |  |  |  | strong cytotoxic effects | strong cytotoxic effects | moderate cytotoxicity |
